This note sets out measurements from patent US10865451B2, “Non-invasive blood based monitoring of genomic alterations in cancer” (Dana-Farber Cancer Institute, Inc., priority 2013, dated 2020).

This assay relates to advanced EGFR-mutant NSCLC. The experiment in a line: Serial ddPCR plasma genotyping of patients on first-line erlotinib (NCT00997334) until RECIST progression. Format: in vivo, human.

Description: For each eligible patient, plasma was collected during routine care either prior to first-line therapy or at a subsequent time when the cancer was progressing on therapy. Additional follow-up specimens were collected if possible during routine care. Each specimen was collected into one 10 mL EDTA-containing vacutainer and was spun into plasma within 4 hours of collection. Plasma cfDNA was extracted and frozen at −80 C until genotyping. Total DNA concentration in extracted plasma was measured via a modified quantitative PCR assay for human long interspersed element 1 (LINE-1).
Each droplet is individually assigned a positive or negative value based on the fluorescent intensity. The amount of positives and negatives are read by a flow cytometer and are used to calculate the concentration of an allele. To minimize bias and to ensure the integrity of results, the laboratory was blinded to the tumor genotype when testing plasma specimens, but results were selectively unblinded for data analysis. Each plasma sample was analyzed in triplicate with an increasing quantity of input DNA (e.g. 1 μL, 2 μL, and 4 μL). Results were normalized to a mean concentration of mutant alleles per μL DNA input, and reported as copies of mutant allele per 100 μL of DNA, the approximate DNA quantity isolated from one blood specimen.

In the case of `C#Cc1cccc(Nc2ncnc3cc(OCCOC)c(OCCOC)cc23)c1` [erlotinib], the “patients exhibiting a plasma response (drop of plasma level of EGFR sensitizing mutation)” value (9 analysed patients with EGFR exon 19 deletion and detectable pretreatment plasma genotype) amounted to 9 patients. The “patients demonstrating a complete plasma response” value (of 9 analysed patients) was found to be 8 patients. The “patients with plasma levels of mutant EGFR again detected at objective progression (plasma T790M also identified)” value (of 9 analysed patients, at RECIST progression) came to 6 patients.
